Laboratory results: patent US20160074297A1, “COMBINATION OF PETROSELINIC ACID AND TAURINE FOR ORAL ADMINISTRATION FOR HAIR AGING CONTROL” (NUTRICOS TECHNOLOGIES, priority 2013, published 2016)

Tested on: human mononuclear cells
Test: Production of lipoxin A4 in human mononuclear cells in vitro stimulated with PMA/A23187 plus DHA/EPA, quantified by LC-MS
Format: cell-based
Details: coriander oil 0.25 mg/ml, taurine 3.1 mg/ml; 30 minutes pre-incubation, then 2 hours of stimulation with phorbol myristate 0.05 μM, calcium ionophore 1 μM, DHA and EPA 1 μg/mL; cell supernatant
Method: Mononuclear blood cells are cultured under 5% CO2 and at 37° C. in a serum-free medium for macrophages (SFM Macrophage; Invitrogen 12065074) for 24 hours. […] The inflammatory response was then triggered in the presence of phorbol myristate (0.05 μM) and calcium ionophore (1μM) and a lipid substrate mixture composed of docosahexaenoic acid (DHA−1 μg/mL) and eicosapentaenoic acid (EPA-1μg/mL). The supernatants were then collected after 2 hours of stimulation and frozen at −80° C. before preparation for analysis by mass spectrometry. Experimental triplicates (three wells) were prepared per experimental condition. Into each culture plate was placed a control corresponding to cells stimulated with the PMA/A23187 mixture and/or with addition of the equimolar mixture of fatty acids. The frozen supernatants were concentrated by solid-phase extraction (SPE) and taken up in methanol before spectrometric analysis. The analytical method used consists in separating the various analytes by high-pressure liquid chromatography as a function of their retention time and in quantifying them by mass spectrometry. The analyses were performed using an LC 1290 Infinity chain (Agilent Technologies) coupled to a 6460 Triple Quad LC/MS mass spectrometer (Agilent Technologies) equipped with an electrospray ionization source (Jet stream technology) operating in negative mode. […]

## NCCS(=O)(=O)O [Taurine]
  Level of lipoxin A4 production (% modulation relative to the control): +38%
